# Assay results as given in ChEMBL document CHEMBL3817725, “Design, synthesis, and biological evaluation of a novel series of peripheral-selective noradrenaline reuptake inhibitors - Part 3” (Bioorg Med Chem, 2016).
# Organism: Homo sapiens
# Test: Selectivity ratio of IC50 for human SERT to IC50 for human NET
# Conditions: not given
row,Structure (SMILES),Ratio IC50
1,O=c1cccnn1C[C@@H]1CNCCO[C@H]1c1ccc(Cl)c(F)c1,1200
2,O=C1CCCCN1C[C@@H]1CNCCO[C@H]1c1ccc(Cl)c(F)c1,270
3,CC(=O)NC[C@@H]1CNCCO[C@H]1c1ccc(Cl)c(F)c1,> 440
4,O=C1NCCCN1C[C@@H]1CNCCO[C@H]1c1ccc(Cl)c(F)c1,150
5,O=C1CCCN1C[C@@H]1CNCCO[C@H]1c1ccc(Cl)c(F)c1,650
6,Cl.O=c1ccccn1C[C@@H]1CNCCO[C@H]1c1ccc(Cl)c(F)c1,1700

# Organism: Homo sapiens
# Test: Selectivity ratio of IC50 for human DAT to IC50 for human NET
# Conditions: not given
row,Structure (SMILES),Ratio IC50
1,O=c1cccnn1C[C@@H]1CNCCO[C@H]1c1ccc(Cl)c(F)c1,3600
2,O=C1CCCCN1C[C@@H]1CNCCO[C@H]1c1ccc(Cl)c(F)c1,1300
3,CC(=O)NC[C@@H]1CNCCO[C@H]1c1ccc(Cl)c(F)c1,> 440
4,O=C1NCCCN1C[C@@H]1CNCCO[C@H]1c1ccc(Cl)c(F)c1,820
5,O=C1CCCN1C[C@@H]1CNCCO[C@H]1c1ccc(Cl)c(F)c1,3100
6,Cl.O=c1ccccn1C[C@@H]1CNCCO[C@H]1c1ccc(Cl)c(F)c1,> 13000

# System: MDR1
# Test: Efflux ratio of apparent permeability from basolateral to apical side over apical to basolateral side in pig LLC-PK1 cells expressing human MDR1 at 10 umol/l after 2 hrs by LC/MS/MS analysis
# Assay type: ADME, cell-based, Sus scrofa
# Conditions: not given
row,Structure (SMILES),"efflux ratio at 2 h, 10 µM"
1,Cl.O=c1[nH]c(-c2cccn(C[C@@H]3CNCCO[C@H]3c3ccc(Cl)c(F)c3)c2=O)no1,1.9
2,COC(=O)c1cccn(C[C@@H]2CNCCO[C@H]2c2ccc(Cl)c(F)c2)c1=O.Cl,7.8
3,Cl.O=c1[nH]c(-c2cccc(=O)n2C[C@@H]2CNCCO[C@H]2c2ccc(Cl)c(F)c2)no1,0.6
4,Cl.O=c1[nH]c(-c2ccc(=O)n(C[C@@H]3CNCCO[C@H]3c3ccc(Cl)c(F)c3)c2)no1,1.6
5,Cc1nnc(-c2cccn(C[C@@H]3CNCCO[C@H]3c3ccc(Cl)c(F)c3)c2=O)[nH]1.Cl,6.8
6,Cl.O=c1c(-c2nnn[nH]2)cccn1C[C@@H]1CNCCO[C@H]1c1ccc(Cl)c(F)c1,1.7
7,Cl.O=C(O)c1cccn(C[C@@H]2CNCCO[C@H]2c2ccc(Cl)c(F)c2)c1=O,2.1
8,Cl.O=c1[nH]c(-c2ccn(C[C@@H]3CNCCO[C@H]3c3ccc(Cl)c(F)c3)c(=O)c2)no1,> 0.8

# System: not listed separately
# Test: Dissociation constant, pKa of the compound
# Assay type: physicochemical
# Conditions: not given
row,Structure (SMILES),pKa
1,Cl.O=c1[nH]c(-c2cccn(C[C@@H]3CNCCO[C@H]3c3ccc(Cl)c(F)c3)c2=O)no1,5.45
2,Cl.O=c1[nH]c(-c2cccc(=O)n2C[C@@H]2CNCCO[C@H]2c2ccc(Cl)c(F)c2)no1,6.35
3,Cl.O=c1[nH]c(-c2ccc(=O)n(C[C@@H]3CNCCO[C@H]3c3ccc(Cl)c(F)c3)c2)no1,5.72
4,Cc1nnc(-c2cccn(C[C@@H]3CNCCO[C@H]3c3ccc(Cl)c(F)c3)c2=O)[nH]1.Cl,9.68
5,Cl.O=c1c(-c2nnn[nH]2)cccn1C[C@@H]1CNCCO[C@H]1c1ccc(Cl)c(F)c1,3.88
6,Cl.O=C(O)c1cccn(C[C@@H]2CNCCO[C@H]2c2ccc(Cl)c(F)c2)c1=O,2.58
7,Cl.O=c1[nH]c(-c2ccn(C[C@@H]3CNCCO[C@H]3c3ccc(Cl)c(F)c3)c(=O)c2)no1,5.89

# System: not listed separately
# Test: Cmax in Crl:CD(SD)(IGS) rat at 1 mg/kg, po administered via cassette dosing by LC/MS/MS analysis
# Assay type: ADME, organism-based
# Parameters: dose 1 mg/kg, route oral
# Conditions: in vivo
row,Structure (SMILES),Cmax [ng/mL]
1,Cl.O=c1[nH]c(-c2cccn(C[C@@H]3CNCCO[C@H]3c3ccc(Cl)c(F)c3)c2=O)no1,17.2
2,Cl.O=c1ccccn1C[C@@H]1CNCCO[C@H]1c1ccc(Cl)c(F)c1,47.9
3,Cl.O=c1c(-c2nnn[nH]2)cccn1C[C@@H]1CNCCO[C@H]1c1ccc(Cl)c(F)c1,16.2
4,Cl.O=C(O)c1cccn(C[C@@H]2CNCCO[C@H]2c2ccc(Cl)c(F)c2)c1=O,93.8

# System: not listed separately
# Test: Mean residence time in Crl:CD(SD)(IGS) rat at 1 mg/kg, po administered via cassette dosing by LC/MS/MS analysis
# Assay type: ADME, organism-based
# Conditions: in vivo
row,Structure (SMILES),MRT [h]
1,Cl.O=c1[nH]c(-c2cccn(C[C@@H]3CNCCO[C@H]3c3ccc(Cl)c(F)c3)c2=O)no1,1.5
2,Cl.O=c1ccccn1C[C@@H]1CNCCO[C@H]1c1ccc(Cl)c(F)c1,2.1
3,Cl.O=c1c(-c2nnn[nH]2)cccn1C[C@@H]1CNCCO[C@H]1c1ccc(Cl)c(F)c1,2
4,Cl.O=C(O)c1cccn(C[C@@H]2CNCCO[C@H]2c2ccc(Cl)c(F)c2)c1=O,1.9

# System: not listed separately
# Test: AUC in Crl:CD(SD)(IGS) rat at 1 mg/kg, po administered via cassette dosing by LC/MS/MS analysis
# Assay type: ADME, organism-based
# Conditions: in vivo
row,Structure (SMILES),AUC [ng·h/mL]
1,Cl.O=c1[nH]c(-c2cccn(C[C@@H]3CNCCO[C@H]3c3ccc(Cl)c(F)c3)c2=O)no1,38.9
2,Cl.O=c1ccccn1C[C@@H]1CNCCO[C@H]1c1ccc(Cl)c(F)c1,107
3,Cl.O=c1c(-c2nnn[nH]2)cccn1C[C@@H]1CNCCO[C@H]1c1ccc(Cl)c(F)c1,44
4,Cl.O=C(O)c1cccn(C[C@@H]2CNCCO[C@H]2c2ccc(Cl)c(F)c2)c1=O,197

# System: not listed separately
# Test: Oral bioavailability in Crl:CD(SD)(IGS) rat at 1 mg/kg administered via cassette dosing by LC/MS/MS analysis
# Assay type: ADME, organism-based
# Conditions: in vivo
row,Structure (SMILES),bioavailability [%]
1,Cl.O=c1[nH]c(-c2cccn(C[C@@H]3CNCCO[C@H]3c3ccc(Cl)c(F)c3)c2=O)no1,12
2,Cl.O=c1ccccn1C[C@@H]1CNCCO[C@H]1c1ccc(Cl)c(F)c1,20
3,Cl.O=c1c(-c2nnn[nH]2)cccn1C[C@@H]1CNCCO[C@H]1c1ccc(Cl)c(F)c1,8
4,Cl.O=C(O)c1cccn(C[C@@H]2CNCCO[C@H]2c2ccc(Cl)c(F)c2)c1=O,41

# System: Rattus norvegicus
# Test: Ex vivo occupancy at NET in Sprague-Dawley rat brain cortex assessed as inhibition of [3H]-nisoxetine binding at 3 mg/kg, iv measured after 1 hr by scintillation counting method
# Assay type: functional
# Conditions: not given
row,Structure (SMILES),Occ [%]
1,Cl.O=c1[nH]c(-c2cccn(C[C@@H]3CNCCO[C@H]3c3ccc(Cl)c(F)c3)c2=O)no1,28.4
2,Cl.O=c1ccccn1C[C@@H]1CNCCO[C@H]1c1ccc(Cl)c(F)c1,83.4
3,Cl.O=c1c(-c2nnn[nH]2)cccn1C[C@@H]1CNCCO[C@H]1c1ccc(Cl)c(F)c1,12
4,Cl.O=C(O)c1cccn(C[C@@H]2CNCCO[C@H]2c2ccc(Cl)c(F)c2)c1=O,14

# System: Rattus norvegicus
# Test: Increase in urethral resistance in po dosed rat assessed as increase in leak point pressure after 15 mins to 4 hrs by Evans blue dye leakage based assay
# Assay type: functional, organism-based
# Conditions: Urethra
row,Structure (SMILES),Activity
1,Cl.O=C(O)c1cccn(C[C@@H]2CNCCO[C@H]2c2ccc(Cl)c(F)c2)c1=O,Dose-dependent effect

# Target: Sodium-dependent noradrenaline transporter (Homo sapiens, UniProt P23975)
# Test: Inhibition of human NET expressed in CHO cells assessed as [3H]-Norepinephrine reuptake incubated for 45 mins measured after 30 mins by topcount method
# Assay type: cell-based
# Conditions: not given
# Sequence of Sodium-dependent noradrenaline transporter (P23975 whole entry): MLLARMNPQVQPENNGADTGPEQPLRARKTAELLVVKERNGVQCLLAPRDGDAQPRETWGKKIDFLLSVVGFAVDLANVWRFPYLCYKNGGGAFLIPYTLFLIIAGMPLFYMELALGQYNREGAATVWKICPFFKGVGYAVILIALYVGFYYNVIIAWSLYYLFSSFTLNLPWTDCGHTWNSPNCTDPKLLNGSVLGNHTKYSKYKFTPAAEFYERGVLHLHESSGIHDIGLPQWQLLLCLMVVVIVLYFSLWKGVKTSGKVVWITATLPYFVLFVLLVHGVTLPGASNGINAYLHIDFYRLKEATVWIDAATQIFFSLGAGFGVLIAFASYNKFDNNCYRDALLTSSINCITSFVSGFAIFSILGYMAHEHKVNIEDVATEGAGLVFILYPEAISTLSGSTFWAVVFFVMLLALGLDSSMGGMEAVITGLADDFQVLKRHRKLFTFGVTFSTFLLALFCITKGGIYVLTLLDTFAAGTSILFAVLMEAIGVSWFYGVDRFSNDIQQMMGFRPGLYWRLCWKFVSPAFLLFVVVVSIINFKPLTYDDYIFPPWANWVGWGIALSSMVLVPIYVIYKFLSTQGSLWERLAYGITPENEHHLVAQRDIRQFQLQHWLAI
row,Structure (SMILES),IC50 [nM]
1,Cl.O=c1[nH]c(-c2cccn(C[C@@H]3CNCCO[C@H]3c3ccc(Cl)c(F)c3)c2=O)no1,1
2,O=c1cccnn1C[C@@H]1CNCCO[C@H]1c1ccc(Cl)c(F)c1,0.065
3,COC(=O)c1cccn(C[C@@H]2CNCCO[C@H]2c2ccc(Cl)c(F)c2)c1=O.Cl,0.21
4,O=C1CCCCN1C[C@@H]1CNCCO[C@H]1c1ccc(Cl)c(F)c1,0.1
5,Cl.O=c1[nH]c(-c2cccc(=O)n2C[C@@H]2CNCCO[C@H]2c2ccc(Cl)c(F)c2)no1,100
6,O=C1NCCCN1C[C@@H]1CNCCO[C@H]1c1ccc(Cl)c(F)c1,0.08
7,O=C1CCCN1C[C@@H]1CNCCO[C@H]1c1ccc(Cl)c(F)c1,0.13
8,Cl.O=c1[nH]c(-c2ccc(=O)n(C[C@@H]3CNCCO[C@H]3c3ccc(Cl)c(F)c3)c2)no1,25
9,Cl.O=c1ccccn1C[C@@H]1CNCCO[C@H]1c1ccc(Cl)c(F)c1,0.079
10,Cc1nnc(-c2cccn(C[C@@H]3CNCCO[C@H]3c3ccc(Cl)c(F)c3)c2=O)[nH]1.Cl,0.64
11,Cl.O=c1c(-c2nnn[nH]2)cccn1C[C@@H]1CNCCO[C@H]1c1ccc(Cl)c(F)c1,1.4
12,Cl.O=C(O)c1cccn(C[C@@H]2CNCCO[C@H]2c2ccc(Cl)c(F)c2)c1=O,1.1
13,Cl.O=c1[nH]c(-c2ccn(C[C@@H]3CNCCO[C@H]3c3ccc(Cl)c(F)c3)c(=O)c2)no1,1.9

# Target: Sodium-dependent serotonin transporter (Homo sapiens, UniProt P31645)
# Test: Inhibition of human SERT expressed in CHO cells assessed as [3H]-5-hydroxytryptamine reuptake incubated for 20 mins measured after 30 mins by topcount method
# Assay type: cell-based
# Conditions: not given
# Sequence of Sodium-dependent serotonin transporter (P31645 whole entry): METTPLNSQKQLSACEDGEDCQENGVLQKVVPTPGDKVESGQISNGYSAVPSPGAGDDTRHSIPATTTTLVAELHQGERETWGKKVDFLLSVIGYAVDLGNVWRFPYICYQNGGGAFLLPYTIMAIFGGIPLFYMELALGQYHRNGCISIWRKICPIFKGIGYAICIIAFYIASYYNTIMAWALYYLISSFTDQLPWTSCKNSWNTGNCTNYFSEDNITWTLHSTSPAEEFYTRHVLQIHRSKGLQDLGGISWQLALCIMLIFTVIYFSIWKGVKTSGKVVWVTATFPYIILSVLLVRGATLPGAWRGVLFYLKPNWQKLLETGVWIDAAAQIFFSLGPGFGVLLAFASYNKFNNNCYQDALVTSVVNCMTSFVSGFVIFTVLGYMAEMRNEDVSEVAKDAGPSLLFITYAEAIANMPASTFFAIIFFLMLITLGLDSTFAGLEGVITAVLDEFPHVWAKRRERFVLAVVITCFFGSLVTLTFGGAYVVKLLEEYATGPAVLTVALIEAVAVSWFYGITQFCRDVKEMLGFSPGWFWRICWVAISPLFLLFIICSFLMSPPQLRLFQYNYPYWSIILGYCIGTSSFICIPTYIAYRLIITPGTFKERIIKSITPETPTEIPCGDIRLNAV
row,Structure (SMILES),IC50 [nM]
1,Cl.O=c1[nH]c(-c2cccn(C[C@@H]3CNCCO[C@H]3c3ccc(Cl)c(F)c3)c2=O)no1,380
2,O=c1cccnn1C[C@@H]1CNCCO[C@H]1c1ccc(Cl)c(F)c1,79
3,COC(=O)c1cccn(C[C@@H]2CNCCO[C@H]2c2ccc(Cl)c(F)c2)c1=O.Cl,54
4,O=C1CCCCN1C[C@@H]1CNCCO[C@H]1c1ccc(Cl)c(F)c1,27
5,CC(=O)NC[C@@H]1CNCCO[C@H]1c1ccc(Cl)c(F)c1,> 1000
6,Cl.O=c1[nH]c(-c2cccc(=O)n2C[C@@H]2CNCCO[C@H]2c2ccc(Cl)c(F)c2)no1,> 1000
7,O=C1NCCCN1C[C@@H]1CNCCO[C@H]1c1ccc(Cl)c(F)c1,12
8,O=C1CCCN1C[C@@H]1CNCCO[C@H]1c1ccc(Cl)c(F)c1,85
9,Cl.O=c1[nH]c(-c2ccc(=O)n(C[C@@H]3CNCCO[C@H]3c3ccc(Cl)c(F)c3)c2)no1,> 1000
10,Cl.O=c1ccccn1C[C@@H]1CNCCO[C@H]1c1ccc(Cl)c(F)c1,130
11,Cc1nnc(-c2cccn(C[C@@H]3CNCCO[C@H]3c3ccc(Cl)c(F)c3)c2=O)[nH]1.Cl,67
12,Cl.O=c1c(-c2nnn[nH]2)cccn1C[C@@H]1CNCCO[C@H]1c1ccc(Cl)c(F)c1,730
13,Cl.O=C(O)c1cccn(C[C@@H]2CNCCO[C@H]2c2ccc(Cl)c(F)c2)c1=O,> 1000
14,Cl.O=c1[nH]c(-c2ccn(C[C@@H]3CNCCO[C@H]3c3ccc(Cl)c(F)c3)c(=O)c2)no1,120

# Target: Sodium-dependent dopamine transporter (Homo sapiens, UniProt Q01959)
# Test: Inhibition of human DAT expressed in CHO cells assessed as [3H]-dopamine reuptake incubated for 60 mins measured after 30 mins by topcount method
# Assay type: cell-based
# Conditions: not given
# Sequence of Sodium-dependent dopamine transporter (Q01959 whole entry): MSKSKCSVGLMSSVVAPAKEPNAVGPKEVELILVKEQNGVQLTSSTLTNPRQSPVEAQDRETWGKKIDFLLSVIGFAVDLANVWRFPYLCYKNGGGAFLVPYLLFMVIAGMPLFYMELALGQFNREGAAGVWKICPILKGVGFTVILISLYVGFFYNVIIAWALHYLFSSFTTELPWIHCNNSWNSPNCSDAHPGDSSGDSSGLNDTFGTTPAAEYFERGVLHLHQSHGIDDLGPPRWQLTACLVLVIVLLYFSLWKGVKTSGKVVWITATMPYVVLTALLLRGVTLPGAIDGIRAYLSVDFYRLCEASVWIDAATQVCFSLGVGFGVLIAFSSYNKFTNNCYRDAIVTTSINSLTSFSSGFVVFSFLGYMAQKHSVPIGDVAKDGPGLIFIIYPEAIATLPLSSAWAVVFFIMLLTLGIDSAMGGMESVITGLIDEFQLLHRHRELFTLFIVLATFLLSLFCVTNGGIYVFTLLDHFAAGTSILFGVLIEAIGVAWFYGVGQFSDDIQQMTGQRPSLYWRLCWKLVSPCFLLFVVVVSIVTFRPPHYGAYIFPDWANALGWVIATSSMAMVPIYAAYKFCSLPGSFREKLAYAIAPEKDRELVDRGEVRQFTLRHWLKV
row,Structure (SMILES),IC50 [nM]
1,Cl.O=c1[nH]c(-c2cccn(C[C@@H]3CNCCO[C@H]3c3ccc(Cl)c(F)c3)c2=O)no1,> 1000
2,O=c1cccnn1C[C@@H]1CNCCO[C@H]1c1ccc(Cl)c(F)c1,240
3,COC(=O)c1cccn(C[C@@H]2CNCCO[C@H]2c2ccc(Cl)c(F)c2)c1=O.Cl,> 1000
4,O=C1CCCCN1C[C@@H]1CNCCO[C@H]1c1ccc(Cl)c(F)c1,130
5,CC(=O)NC[C@@H]1CNCCO[C@H]1c1ccc(Cl)c(F)c1,> 1000
6,Cl.O=c1[nH]c(-c2cccc(=O)n2C[C@@H]2CNCCO[C@H]2c2ccc(Cl)c(F)c2)no1,> 1000
7,O=C1NCCCN1C[C@@H]1CNCCO[C@H]1c1ccc(Cl)c(F)c1,66
8,O=C1CCCN1C[C@@H]1CNCCO[C@H]1c1ccc(Cl)c(F)c1,400
9,Cl.O=c1[nH]c(-c2ccc(=O)n(C[C@@H]3CNCCO[C@H]3c3ccc(Cl)c(F)c3)c2)no1,> 1000
10,Cl.O=c1ccccn1C[C@@H]1CNCCO[C@H]1c1ccc(Cl)c(F)c1,> 1000
11,Cc1nnc(-c2cccn(C[C@@H]3CNCCO[C@H]3c3ccc(Cl)c(F)c3)c2=O)[nH]1.Cl,> 1000
12,Cl.O=c1c(-c2nnn[nH]2)cccn1C[C@@H]1CNCCO[C@H]1c1ccc(Cl)c(F)c1,> 1000
13,Cl.O=C(O)c1cccn(C[C@@H]2CNCCO[C@H]2c2ccc(Cl)c(F)c2)c1=O,> 1000
14,Cl.O=c1[nH]c(-c2ccn(C[C@@H]3CNCCO[C@H]3c3ccc(Cl)c(F)c3)c(=O)c2)no1,> 1000
